Experimental data published in patent publication US20090280196A1, “CISSUS […] PLANT EXTRACTS FOR TREATING OSTEOPOROSIS AND THE EXTRACTION PROCESS THEREOF” (priority 2006, published 2009).

How the values were obtained:
[1] = test system: osteoclasts (osteoclastic bone resorption); assay: Bone resorption hit screening, CTX release from osteoclasts on bovine bone slices; format: cell-based, human; settings: positive control, V-ATPase blocker, concentration not given
From the text: Studies have determined that osteoclasts are largely derived from CD14 positive monocytes (J. Haemotol, 1999 July; 106(1):167-70). Clonal analysis of haematopoietic cells by surface phenotypes has been used to further identify osteoclast precursor by characterizing osteoclast like cells distinct from other haematopoietic progenitors (Lee et. al; 1992b Muguruma & Lee; 1988). Surface phenotype analysis has shown that human osteoclasts are derived from CD14 monocytes (Massey & Flanagan, 1999). CD 14 marker is strongly expressed on monocytes, the putative osteoclast precursor in peripheral blood and CD14 positive monocytes have been selected for osteoclastogenesis. (Clin. Sci (Lond) 2000, August, 99(2): 133-40).
The osteoclasts were isolated as CD14 positive monocytes and differentiated into osteoclasts for 10-12 days. Hereafter, the osteoclasts were lifted by trypsin, counted and seeded on bovine bone slices at a density of 40000 cells per bone slice. The osteoclasts were seeded on the bone slices for one day before the plant extracts were added. The osteoclasts were hereby allowed to attach and initiate resorption. […]
The bone resorption experiment was ended after 5 days of incubation and the cell viability was measured by the use of the AlamarBlue assay. Bone resorption was evaluated as the determination of the CTX release.

[2] = cited from earlier work

| Structure (SMILES) | inhibition of osteoclastic bone resorption compared to DMSO [1] | increase of bone mineral density in the spine ([2]; in 18 months, once daily subcutaneous injection) [%] | reduction of the risk of fracture ([2]; patients) [%] |
| --- | --- | --- | --- |
| CO/C1=C\C(C)=C\[C@@H](C)[C@@H](O)[C@@H](C)C/C(C)=C/C=C/[C@H](OC)[C@@H]([C@@H](C)[C@@H](O)[C@H](C)[C@@]2(O)C[C@@H](O)[C@H](C)[C@@H](C(C)C)O2)OC1=O [Bafilomycin] | approximately 80% |  |  |
| CC[C@H](C)[C@H](NC(=O)[C@H](CCC(=O)O)NC(=O)[C@H](CO)NC(=O)[C@@H](NC(=O)[C@@H](N)CO)C(C)C)C(=O)N[C@@H](CCC(N)=O)C(=O)N[C@@H](CC(C)C)C(=O)N[C@@H](CCSC)C(=O)N[C@@H](Cc1cnc[nH]1)C(=O)N[C@@H](CC(N)=O)C(=O)N[C@@H](CC(C)C)C(=O)NCC(=O)N[C@@H](CCCCN)C(=O)N[C@@H](Cc1cnc[nH]1)C(=O)N[C@@H](CC(C)C)C(=O)N[C@@H](CC(N)=O)C(=O)N[C@@H](CO)C(=O)N[C@@H](CCSC)C(=O)N[C@@H](CCC(=O)O)C(=O)N[C@@H](CCCN=C(N)N)C(=O)N[C@H](C(=O)N[C@@H](CCC(=O)O)C(=O)N[C@@H](Cc1c[nH]c2ccccc12)C(=O)N[C@@H](CC(C)C)C(=O)N[C@@H](CCCN=C(N)N)C(=O)N[C@@H](CCCCN)C(=O)N[C@@H](CCCCN)C(=O)N[C@@H](CC(C)C)C(=O)N[C@@H](CCC(N)=O)C(=O)N[C@@H](CC(=O)O)C(=O)N[C@H](C(=O)N[C@@H](Cc1cnc[nH]1)C(=O)N[C@@H](CC(N)=O)C(=O)N[C@@H](Cc1ccccc1)C(=O)O)C(C)C)C(C)C [teriparatide] |  | ≤ 13 | ≤ 90 |
